Patent US20080075695A1, “COMBINATION THERAPY METHOD FOR TREATING HEPATITIS C VIRUS INFECTION AND PHARMACEUTICAL COMPOSITIONS FOR USE THEREIN” (priority 2006, published 2008)

How the values were obtained:
[1] = target: T1, HCV NS5B protein (genotype 1b, BB7) (Hepatitis C virus genotype 1b, UniProt Q9WMX2); experiment: Inhibition of viral RNA-dependent RNA polymerase (RdRp); assay type: biochemical; conditions: purified HCV NS5B, C-terminal 21 amino acids removed
T1 construct: of which the carboxyl terminal 21 amino acids were removed to enhance its solubility; made in house; host or cells: E. coli
From the text: The HCV NS5B-directed RdRp activity was established and characterized in a standard in vitro biochemical assay using a purified HCV NS5B protein derived from the consensus sequence of a patient infected with HCV genotype 1b virus (BB7). (See Blight K J et al., Science. 2000, 290:1972-4). The NS5B consensus sequence was cloned and expressed in E. coli as a histidine tagged ([…]) fusion protein, of which the carboxyl terminal 21 amino acids were removed to enhance its solubility.
In addition to evaluating its activity in the replicon assay, as described above, the BZF of Example 1 was also evaluated for antiviral activity using this assay.

HCV = experiment: Phase 1b clinical trial (MAD study), plasma HCV RNA; assay type: in vivo, human; conditions: for MEAN Δ change from baseline (log HCV RNA level): on-therapy analysis
From the text: A 14 day randomized, double-blind, placebo-controlled, sequential-group study of multiple ascending doses (MAD) included subjects with chronic HCV infection who were naïve to treatment. Subjects were enrolled in sequential, ascending dose cohorts with a target of 16 subjects (12 subjects receiving the BZF and 4 receiving placebo in each cohort). The first cohorts assessed the effect of the BZF as monotherapy compared to placebo. Subsequent cohorts were comprised of subjects who received pegylated interferon alfa-2b (PEG-Intron; 1.5 μg/kg/dose) administered subcutaneously on days −1 and 7 in combination with either placebo or the BZF administered orally (100 mg, 250 mg, 500 mg or 1000 mg every 12 hours, in combinations of 25 mg or 200 mg capsules) from days 1 to 14. […] The mean viral load for each treatment group at study entry was >6.0 log 10 UI/ml HCV RNA.

[2] = Day 14, BZF 100 mg, all genotypes
[3] = Day 14, BZF 250 mg, all genotypes
[4] = Day 14, BZF 500 mg, all genotypes
[5] = Day 14, BZF 1000 mg, all genotypes

CNC(=O)c1c(-c2ccc(F)cc2)oc2cc(N(CCO)S(C)(=O)=O)c(C3CC3)cc12 [BZF, 5-cyclopropyl-2-(4-fluoro-phenyl)-6-[(2-hydroxy-ethyl)-methanesulfonyl-amino]-benzofuran-3-carboxylic acid methylamide]
IC50 [1]: < 0.5 µM
MEAN Δ change from baseline (log HCV RNA level) (HCV; Day 4, BZF 500 mg every 12 hours, all genotypes): −1.43 log
MEAN Δ change from baseline (log HCV RNA level) (HCV; Day 7, BZF 500 mg every 12 hours, all genotypes): −1.30 log
% Subjects BQL (below quantification limits, <50 IU/mL) (HCV; [2]): 0%
% Subjects with ≧1.5 log ↓ in log10 HCV RNA (HCV; [2]): 2 (17%)
% Subjects with ≧2 log ↓ in log10 HCV RNA (HCV; [2]): 0%
% Subjects with ≧3 log ↓ in log10 HCV RNA (HCV; [2]): 0%
% Subjects BQL (below quantification limits, <50 IU/mL) (HCV; [3]): 0%
% Subjects with ≧1.5 log ↓ in log10 HCV RNA (HCV; [3]): 0%
% Subjects with ≧2 log ↓ in log10 HCV RNA (HCV; [3]): 0%
% Subjects with ≧3 log ↓ in log10 HCV RNA (HCV; [3]): 0%
MEAN Δ change from baseline (log HCV RNA level) (HCV; Day 14, BZF 500 mg every 12 hours, all genotypes): −0.64 log
% Subjects BQL (below quantification limits, <50 IU/mL) (HCV; [4]): 0%
% Subjects with ≧1.5 log ↓ in log10 HCV RNA (HCV; [4]): 1 (8%)
% Subjects with ≧2 log ↓ in log10 HCV RNA (HCV; [4]): 1 (8%)
% Subjects with ≧3 log ↓ in log10 HCV RNA (HCV; [4]): 0%
% Subjects BQL (below quantification limits, <50 IU/mL) (HCV; Day 14, BZF 500 mg, genotype 1): 0%
% Subjects with ≧1.5 log ↓ in log10 HCV RNA (HCV; Day 14, BZF 500 mg, genotype 1): 1 (13%)
% Subjects with ≧2 log ↓ in log10 HCV RNA (HCV; Day 14, BZF 500 mg, genotype 1): 1 (13%)
% Subjects with ≧3 log ↓ in log10 HCV RNA (HCV; Day 14, BZF 500 mg, genotype 1): 0%
% Subjects BQL (below quantification limits, <50 IU/mL) (HCV; [5]): 0%
% Subjects with ≧1.5 log ↓ in log10 HCV RNA (HCV; [5]): 2 (17%)
% Subjects with ≧2 log ↓ in log10 HCV RNA (HCV; [5]): 2 (17%)
% Subjects with ≧3 log ↓ in log10 HCV RNA (HCV; [5]): 1 (8%)
